Test results reported in PubChem BioAssay AID330 (DTP/NCI, 2004).
Where “and” joins values, the source holds several entries; their conditions need not be identical. Identical values can stand only once. Inconclusive results and toxic doses are left out. How the source made its calls: active means survival T/C of 150% or more; inactive means T/C below 125% in these data. Peptide text beside a SMILES is read from it. * marks the point of attachment. βNA = c1ccc2cc(N*)ccc2c1

Tested on: P388 leukemia ip, CD2F1 mice, survival T/C
Assay: NCI In Vivo Anticancer Drug Screen. Data for tumor model P388 Leukemia (intraperitoneal) in CD2F1 (CDF1) mice
Conditions: endpoint: median survival time, higher = longer survival
Method in brief: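 Mice carrying the transplanted tumor received test compound or vehicle. Survival was recorded in each group, and the value is the treated-group measurement divided by that of the vehicle-treated control group.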

[1] = dose: 50.0 mg/kg/injection, schedule: Q01DX005 (ip), vehicle: saline with Tween-80
[2] = dose: 60.0 mg/kg/injection, schedule: Q01DX005 (ip), vehicle: saline with Tween-80
[3] = dose: 100.0 mg/kg/injection, schedule: Q01DX005 (ip), vehicle: saline with Tween-80
[4] = dose: 200.0 mg/kg/injection, schedule: Q01DX005 (ip), vehicle: saline with Tween-80
[5] = dose: 100.0 mg/kg/injection, schedule: Q01DX009 (ip), vehicle: Klucel (hydroxypropylcellulose) (HPC)
[6] = dose: 200.0 mg/kg/injection, schedule: Q01DX009 (ip), vehicle: Klucel (hydroxypropylcellulose) (HPC)
[7] = dose: 50.0 mg/kg/injection, schedule: Q01DX005 (ip), vehicle: Klucel (hydroxypropylcellulose) (HPC)
[8] = dose: 100.0 mg/kg/injection, schedule: Q01DX005 (ip), vehicle: Klucel (hydroxypropylcellulose) (HPC)
[9] = dose: 200.0 mg/kg/injection, schedule: Q01DX005 (ip), vehicle: Klucel (hydroxypropylcellulose) (HPC)
[10] = dose: 50.0 mg/kg/injection, schedule: Q01DX005 (ip), vehicle: saline
[11] = dose: 100.0 mg/kg/injection, schedule: Q01DX005 (ip), vehicle: saline

Measured: T/C

CN(CCN1C(=O)c2cccc3cccc(c23)C1=O)CCN1C(=O)c2cccc3cccc(c23)C1=O
inactive: [1] 95 % of control | [2] 95 % of control | [3] 87 % of control | [4] 91 % of control | dose: 240.0 mg/kg/injection, schedule: Q01DX005 (ip), vehicle: saline with Tween-80 88 % of control

C=C1C(=O)C23C(O)CC4C5(C)CCCC4(C(O)OC5)C2C(OC(C)=O)CC1C3O (stereo not drawn)
inactive: dose: 4.0 mg/kg/injection, schedule: Q01DX009 (ip), vehicle: other 115 % of control | dose: 4.0 mg/kg/injection, schedule: Q01DX009 (ip), vehicle: water 114 % of control | dose: 8.0 mg/kg/injection, schedule: Q01DX009 (ip), vehicle: water 116 % of control | dose: 16.0 mg/kg/injection, schedule: Q01DX009 (ip), vehicle: other 122 % of control | dose: 16.0 mg/kg/injection, schedule: Q01DX009 (ip), vehicle: water 114 % of control | dose: 32.0 mg/kg/injection, schedule: Q01DX009 (ip), vehicle: water 107 % of control

O=c1nc2scc(-c3ccccc3)n2c2sc3c(c12)CCCC3
inactive: dose: 100.0 mg/kg/injection, schedule: Q01DX001 (ip), vehicle: saline with Tween-80 106 % of control | dose: 200.0 mg/kg/injection, schedule: Q01DX001 (ip), vehicle: saline with Tween-80 95 % of control | dose: 400.0 mg/kg/injection, schedule: Q01DX001 (ip), vehicle: saline with Tween-80 93 % of control

Cc1ccc(C(N)=Nc2ccccc2)cc1
inactive: [2] 100 % of control

O=[N+]([O-])c1ccc(O)c(/C=N\NS(=O)(=O)c2ccc(F)cc2)c1
inactive: [1] 103 % of control | [3] 93 % of control

CC1=COC2CCCCC2O1 (stereo not drawn) (tested in a mixture with another compound)
inactive: dose: 25.0 mg/kg/injection, schedule: Q01DX009 (ip), vehicle: acetone 111 % of control | dose: 50.0 mg/kg/injection, schedule: Q01DX009 (ip), vehicle: acetone 105 % of control

NS(=O)(=O)c1ccc(Nc2c3ccccc3nc3ccccc23)cc1
inactive: dose: 100.0 mg/kg/injection, schedule: Q04DX003 (ip), vehicle: Klucel (hydroxypropylcellulose) (HPC) 110 % of control and 86 % of control (2×) | dose: 118.0 mg/kg/injection, schedule: Q04DX003 (ip), vehicle: Klucel (hydroxypropylcellulose) (HPC) 93 % of control | dose: 200.0 mg/kg/injection, schedule: Q04DX003 (ip), vehicle: Klucel (hydroxypropylcellulose) (HPC) 118 % of control and 90 % of control | dose: 236.0 mg/kg/injection, schedule: Q04DX003 (ip), vehicle: Klucel (hydroxypropylcellulose) (HPC) 99 % of control | dose: 400.0 mg/kg/injection, schedule: Q04DX003 (ip), vehicle: Klucel (hydroxypropylcellulose) (HPC) 120 % of control and 88 % of control and 95 % of control | dose: 472.0 mg/kg/injection, schedule: Q04DX003 (ip), vehicle: Klucel (hydroxypropylcellulose) (HPC) 99 % of control

O=C1CCCCCCCCCCCCCCCO1
inactive: dose: 6.25 mg/kg/injection, schedule: Q01DX009 (ip), vehicle: Klucel (hydroxypropylcellulose) (HPC) 103 % of control | dose: 12.5 mg/kg/injection, schedule: Q01DX009 (ip), vehicle: Klucel (hydroxypropylcellulose) (HPC) 98 % of control and 115 % of control | dose: 25.0 mg/kg/injection, schedule: Q01DX009 (ip), vehicle: Klucel (hydroxypropylcellulose) (HPC) 104 % of control and 97 % of control | dose: 50.0 mg/kg/injection, schedule: Q01DX009 (ip), vehicle: Klucel (hydroxypropylcellulose) (HPC) 100 % of control and 120 % of control and 91 % of control | [5] 109 % of control | [6] 111 % of control | dose: 400.0 mg/kg/injection, schedule: Q01DX009 (ip), vehicle: Klucel (hydroxypropylcellulose) (HPC) 109 % of control

CC(=O)N1CCc2cc(C(C)C)ccc21
inactive: dose: 25.0 mg/kg/injection, schedule: Q01DX009 (ip), vehicle: other 97 % of control | dose: 50.0 mg/kg/injection, schedule: Q01DX009 (ip), vehicle: other 97 % of control | dose: 100.0 mg/kg/injection, schedule: Q01DX009 (ip), vehicle: other 91 % of control | dose: 200.0 mg/kg/injection, schedule: Q01DX009 (ip), vehicle: other 103 % of control | dose: 400.0 mg/kg/injection, schedule: Q01DX009 (ip), vehicle: other 88 % of control

CCCCCCCCCC[N+](C)([O-])CCCCCC[N+](C)([O-])CCCCCCCCCC (stereo not drawn)
inactive: dose: 50.0 mg/kg/injection, schedule: Q04DX003 (ip), vehicle: saline with Tween-80 102 % of control | dose: 100.0 mg/kg/injection, schedule: Q04DX003 (ip), vehicle: saline with Tween-80 99 % of control

Cc1coc2c1CC1(C)C(CCC(OC(=O)CC(C)C)C1C)C2=O (stereo not drawn) (tested in a mixture with another compound)
inactive: [5] 105 % of control | [6] 93 % of control

COC(=O)[C@@]12OC[C@]34C([C@@H](O)C1O)[C@@]1(C)CC(=O)C(OS(=O)(=O)C(F)(F)F)=C(C)C1C[C@H]3OC(=O)[C@H](OC(=O)/C=C(\C)C(C)C)[C@H]42 (stereo partly drawn)
inactive: dose: 0.25 mg/kg/injection, schedule: Q01DX005 (ip), vehicle: DMSO 101 % of control | dose: 0.5 mg/kg/injection, schedule: Q01DX005 (ip), vehicle: DMSO 108 % of control | dose: 1.0 mg/kg/injection, schedule: Q01DX005 (ip), vehicle: DMSO 109 % of control and 97 % of control | dose: 2.0 mg/kg/injection, schedule: Q01DX005 (ip), vehicle: DMSO 107 % of control and 118 % of control | dose: 4.0 mg/kg/injection, schedule: Q01DX005 (ip), vehicle: DMSO 107 % of control | dose: 8.0 mg/kg/injection, schedule: Q01DX005 (ip), vehicle: DMSO 115 % of control

CCCCCOc1cc2c(cc1C(C)c1ccc(OC)cc1)OCO2 (stereo not drawn)
inactive: [7] 107 % of control | [8] 103 % of control | [9] 98 % of control

CC(=O)Oc1ccc(OC(C)=O)c2c(OC(C)=O)c(C3CCC(C)(C)O3)cc(OC(C)=O)c12 (stereo not drawn)
inactive: dose: 12.5 mg/kg/injection, schedule: Q04DX002 (ip), vehicle: saline with Tween-80 106 % of control | dose: 25.0 mg/kg/injection, schedule: Q04DX002 (ip), vehicle: saline with Tween-80 118 % of control

CCCCCOC(=O)CN(CC(=O)OCCCCC)c1ccc(C=O)cc1
inactive: dose: 25.0 mg/kg/injection, schedule: Q04DX003 (ip), vehicle: other 95 % of control | dose: 50.0 mg/kg/injection, schedule: Q04DX003 (ip), vehicle: other 100 % of control | dose: 100.0 mg/kg/injection, schedule: Q04DX003 (ip), vehicle: other 100 % of control

O=c1c2cc3c(=O)n(CC[P+](c4ccccc4)(c4ccccc4)c4ccccc4)c(=O)c3cc2c(=O)n1CC[P+](c1ccccc1)(c1ccccc1)c1ccccc1
inactive: dose: 0.78 mg/kg/injection, schedule: Q01DX009 (ip), vehicle: water 99 % of control | dose: 1.56 mg/kg/injection, schedule: Q01DX009 (ip), vehicle: water 97 % of control | dose: 3.13 mg/kg/injection, schedule: Q01DX009 (ip), vehicle: water 93 % of control

CC(C)(C)OC(=O)NC(CCCCN)C(=O)O (stereo not drawn)
inactive: [10] 103 % of control | [11] 100 % of control | dose: 200.0 mg/kg/injection, schedule: Q01DX005 (ip), vehicle: saline 100 % of control

CCCCN(CCCC)C(C)C(O)c1ccc2cc(Br)c3ccccc3c2c1 (stereo not drawn)
inactive: [1] 100 % of control | [3] 98 % of control | [4] 91 % of control

O=C1OCCN1/N=C\c1ccccc1
inactive: dose: 50.0 mg/kg/injection, schedule: Q01DX009 (ip), vehicle: saline 94 % of control | dose: 100.0 mg/kg/injection, schedule: Q01DX009 (ip), vehicle: saline 87 % of control | dose: 200.0 mg/kg/injection, schedule: Q01DX009 (ip), vehicle: saline 90 % of control

Oc1ccc2[nH]cc(CCNCC3(O)OCC(O)C(O)C3O)c2c1 (stereo not drawn)
inactive: dose: 60.0 mg/kg/injection, schedule: Q01DX005 (ip), vehicle: saline 98 % of control | dose: 120.0 mg/kg/injection, schedule: Q01DX005 (ip), vehicle: saline 101 % of control | dose: 240.0 mg/kg/injection, schedule: Q01DX005 (ip), vehicle: saline 91 % of control

NC(=O)c1ccc(Cl)cc1C(N)=O
inactive: [7] 99 % of control | [8] 105 % of control | [9] 99 % of control

CCN(CC)CCCNC(=O)c1noc2cc([N+](=O)[O-])ccc12
inactive: dose: 12.5 mg/kg/injection, schedule: Q01DX005 (ip), vehicle: saline 113 % of control | dose: 25.0 mg/kg/injection, schedule: Q01DX005 (ip), vehicle: saline 105 % of control | [10] 99 % of control

CC(N)C(=O)NC(Cc1ccccc1)C(=O)N1CCCC1C(=O)Nc1ccc2ccccc2c1 (stereo not drawn) (H-Ala-Phe-Pro-βNA; configuration not given here)
inactive: [10] 106 % of control | [11] 92 % of control
